We go through 27 compounds from patent US20030050307A1, “Novel indole derivatives” (H. Lundbeck A/S, priority 1999, published 2003).

Data set [1] concerns the target T1, cloned human 5-HT1A-receptors (Homo sapiens, UniProt P08908).
T1 construct: expressed in transfected cells; host or cells: HeLa cells (HA7)
T1 sequence (P08908 1-422): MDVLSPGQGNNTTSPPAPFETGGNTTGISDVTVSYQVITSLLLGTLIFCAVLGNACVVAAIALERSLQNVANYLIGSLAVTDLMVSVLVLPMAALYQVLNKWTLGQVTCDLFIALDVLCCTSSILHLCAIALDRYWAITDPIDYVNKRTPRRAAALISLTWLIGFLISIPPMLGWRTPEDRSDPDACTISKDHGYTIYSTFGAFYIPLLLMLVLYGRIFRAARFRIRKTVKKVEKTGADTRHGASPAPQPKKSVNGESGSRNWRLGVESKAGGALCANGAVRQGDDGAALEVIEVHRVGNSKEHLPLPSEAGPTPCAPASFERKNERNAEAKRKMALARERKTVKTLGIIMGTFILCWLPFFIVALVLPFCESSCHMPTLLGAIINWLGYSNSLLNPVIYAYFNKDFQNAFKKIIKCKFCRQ
Nature of the data set: Inhibition of 3H-5-CT binding to human 5-HT1A receptors. The conditions noted are these: transfected HeLa cells (HA7), 15 minutes at 37° C., pH 7.7. Here is the method: The affinity of the compounds of the invention to 5-HT1A receptors was determined by measuring the inhibition of binding of a radioactive ligand at 5-HT1A-receptors as described in the following test:
Inhibition of ^3H-5-CT Binding to Human 5-HT1A Receptors.
By this method, the inhibition by drugs of the binding of the 5-HT1A-agonist ^3H-5-carboxamido tryptamine (^3H-5-CT) to cloned human 5-HT1A-receptors stably expressed in transfected HeLa cells (HA7) (Fargin, A. et al. J. Biol. Chem. 1989, 264, 14848) is determined in vitro. The assay was performed as a modification of the method described by Harrington, M. A. et al. J. Pharmacol. Exp. Ther. 1994, 268, 1098. Human 5-HT1A-receptors (40 μg of cell homogenate) were incubated for 15 minutes at 37° C. in 50 mM Tris buffer at pH 7.7 in the presence of ^3H-5-CT. Non-specific binding was determined by including 10 μM of metergoline. The reaction was terminated by rapid filtration through Unifilter GF/B filters on a Tomtec Cell Harvester. Filters were counted in a Packard Top Counter.

The target in data set [2] is T2, human cloned dopamine D4.2-receptors (Homo sapiens, UniProt P21917, DEL265-296).
T2 construct: expressed in transfected cells; host or cells: CHO cells
T2 sequence (P21917 with tags, fused parts or gaps DEL265-296): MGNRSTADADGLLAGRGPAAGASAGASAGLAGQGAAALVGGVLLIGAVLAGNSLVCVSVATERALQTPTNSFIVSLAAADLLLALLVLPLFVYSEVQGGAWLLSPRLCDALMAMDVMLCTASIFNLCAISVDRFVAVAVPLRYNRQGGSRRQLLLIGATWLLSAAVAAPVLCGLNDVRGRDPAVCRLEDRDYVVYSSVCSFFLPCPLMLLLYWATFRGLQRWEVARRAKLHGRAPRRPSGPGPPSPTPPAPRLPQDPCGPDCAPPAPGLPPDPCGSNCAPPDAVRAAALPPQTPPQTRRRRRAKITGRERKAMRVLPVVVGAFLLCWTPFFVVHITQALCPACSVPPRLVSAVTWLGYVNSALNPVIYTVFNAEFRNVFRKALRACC
Nature of the data set: Inhibition of the binding of 3H-YM-09151-2 to human dopamine D4 receptors. The settings on record: [3H]YM-09151-2 0.06 nM; for IC50: membranes of CHO-cells expressing human D4.2. On the procedure: Inhibition of the Binding of ^3H-YM-09151-2 to Human Dopamine D4 Receptors
By this method, the inhibition by drugs of the binding of [^3H]YM-09151-2 (0.06 nM) to membranes of human cloned dopamine D4.2-receptors expressed in CHO-cells is determined in vitro. Method modified from NEN Life Science Products, Inc., technical data certificate PC2533-10/96.

The mark [3] stands for this setting: at 100 nM, CHO-cell membranes, human D4.2.

Structures can show the parent of a compound that is named as a salt.

For `Clc1ccc(SCCN2CCN(c3cccc4[nH]ccc34)CC2)cc1Cl` (as salt: oxalate) [Compound 3c, 4-{4-[2-(3,4-Dichloro-phenylsulfanyl)-ethyl]-piperazin-1-yl}-1H-indole], the melting point lay in the range of 140 to 141 °C.

Compound `Brc1ccccc1SCCCN1CCN(c2cccc3[nH]ccc23)CC1` (as salt: oxalate) [Compound 2b, 4-(4-[3-(2-Bromo-phenylsulfanyl)-propyl]-piperazin-1-yl}-1H-indole] gave a melting point of 163 to 166 °C.

Compound `Brc1ccccc1OCCCN1CCN(c2cccc3[nH]ccc23)CC1` (as salt: oxalate) [Compound 2c, 4-{4-[3-(2-Bromo-phenoxy)-propyl]-piperazin-1-yl}-1H-indole] registered a melting point of 206 to 208 °C.

In the case of `c1ccc(SCCCCN2CCN(c3cccc4[nH]ccc34)CC2)cc1` [Compound 5aj, 4-[4-(4-Phenylsulfanyl-butyl)-piperazin-1-yl]-1H-indole], the inhibition at 0.05 µM in data set [1] (at 50 nM) was found to be 77%. The inhibition at 0.1 µM in data set [2] (setting [3]) is 100%.

Take `Fc1cc(Cl)c(OCCCN2CCN(c3cccc4[nH]ccc34)CC2)c(Cl)c1` [Compound 4i, 4-{4-[3-(2,6-Dichloro-4-fluoro-phenoxy)-propyl]-piperazin-1-yl}-1H-indole]: the values for the IC50 in data set [1] and in data set [2] were 1 nM and 16 nM, respectively.

Consider `CC(C)c1ccccc1SCCCN1CCN(c2cccc3[nH]ccc23)CC1` [Compound 5az, 4-{4-[3-(2-Isopropyl-phenylsulfanyl)-propyl]-piperazin-1-yl}-1H-indole], for which, in data set [1] (at 50 nM), the inhibition at 0.05 µM was 98%. Further, the inhibition at 0.1 µM in data set [2] (setting [3]) was found to be 94%.

As to `Fc1cc(Cl)c(OCCCCN2CCN(c3cccc4[nH]ccc34)CC2)c(Cl)c1` [Compound 4g, 4-{4-[4-(2,6-Dichloro-4-fluoro-phenoxy)-butyl]-piperazin-1-yl}-1H-indole], the 50% inhibitory concentration (IC50) turned out to be 2.4 nM in data set [1] and 4.9 nM in data set [2].

For `Clc1cccc(Cl)c1SCCN1CCN(c2cccc3[nH]ccc23)CC1` (as salt: oxalate) [Compound 3b, 4-(4-[2-(2,6-Dichloro-phenylsulfanyl)-ethyl]-piperazin-1-yl)-1H-indole], the melting point was 130 to 133 °C (dec.).

For the compound `Cc1ccc(OCCCCN2CCN(c3cccc4[nH]ccc34)CC2)c(C)c1` [Compound 5ah, 4-{4-[4-(2,4-Dimethyl-phenoxy)-butyl]-piperazin-1-yl}-1H-indole], the inhibition at 0.05 µM in data set [1] (at 50 nM) came out at 86%. In addition, the inhibition at 0.1 µM in data set [2] (setting [3]) amounted to 90%.

On to `Clc1cccc(SCCCN2CCN(c3cccc4[nH]ccc34)CC2)c1` [Compound 5ao, 4-{4-[3-(3-Chloro-phenylsulfanyl)-propyl]-piperazin-1-yl}-1H-indole], for which the inhibition at 0.05 µM in data set [1] (at 50 nM) amounted to 100%. Also, the inhibition at 0.1 µM in data set [2] (setting [3]) worked out at 102%.

Turning to `N#Cc1cc(Br)c(OCCCN2CCN(c3cccc4[nH]ccc34)CC2)c(Br)c1` [Compound 4o, 3,5-Dibromo-4-{3-[4-(1H-indol-4-yl)-piperazin-1-yl]-propoxy}-benzonitrile], the IC50 came out at 0.72 nM in data set [1] and 32 nM in data set [2].

Regarding `Cc1cccc(Cl)c1SCCCCN1CCN(c2cccc3[nH]ccc23)CC1` (as salt: oxalate) [Compound 2e, 4-{4-[4-(2-Chloro-6-methyl-phenylsulfanyl)-butyl]-piperazin-1-yl}-1H-indole], the melting point was in the range of 199 to 210 °C.

With `Clc1ccccc1SCCN1CCN(c2cccc3[nH]ccc23)CC1` [Compound 5an, 4-{4-[2-(2-Chloro-phenylsulfanyl)-ethyl]-piperazin-1-yl}-1H-indole], in data set [1] (at 50 nM), the inhibition at 0.05 µM is 91%. Moreover, in data set [2] (setting [3]), the inhibition at 0.1 µM turned out to be 83%.

For the compound `Clc1ccccc1SCCCCN1CCN(c2cccc3[nH]ccc23)CC1` [Compound 5ar, 4-{4-[4-(2-Chloro-phenylsulfanyl)-butyl]-piperazin-1-yl}-1H-indole], the inhibition at 0.05 µM in data set [1] (at 50 nM) is 104%. Also, the inhibition at 0.1 µM in data set [2] (setting [3]) was 98%.

In the case of `Clc1ccc(Cl)c(OCCCCN2CCN(c3cccc4[nH]ccc34)CC2)c1` [Compound 5au, 4-{4-[4-(2,5-Dichloro-phenoxy)-butyl]-piperazin-1-yl}-1H-indole], the inhibition at 0.05 µM in data set [1] (at 50 nM) was found to be 99%. The inhibition at 0.1 µM in data set [2] (setting [3]) was 97%.

Turning to `Brc1ccccc1SCCCN1CCN(c2cccc3[nH]ccc23)CC1` [Compound 2b, 4-(4-[3-(2-Bromo-phenylsulfanyl)-propyl]-piperazin-1-yl}-1H-indole], the IC50 in data set [1] amounted to 2.7 nM; in data set [2], 1.2 nM.

`Fc1cc(Br)c(OCCCCN2CCN(c3cccc4[nH]ccc34)CC2)c(Br)c1` [Compound 4k, 4-{4-[4-(2,6-Dibromo-4-fluoro-phenoxy)-butyl]-piperazin-1-yl}-1H-indole]: the IC50 in data set [1] was 6.7 nM; in data set [2], 26 nM.

Take `Fc1cc(F)c(OCCCN2CCN(c3cccc4[nH]ccc34)CC2)c(Br)c1` [Compound 4h, 4-{4-[3-(2-Bromo-4,6-difluoro-phenoxy)-propyl]-piperazin-1-yl}-1H-indole]: the IC50 in data set [1] was found to be 1.4 nM; in data set [2] it was 5.4 nM.

As for `Fc1cc(Br)cc(F)c1OCCCCN1CCN(c2cccc3[nH]ccc23)CC1` [Compound 4j, 4-{4-[4-(4-Bromo-2,6-difluoro-phenoxy)-butyl]-piperazin-1-yl}-1H-indole], the half-maximal inhibitory concentration (IC50) in data set [1] is 17 nM; in data set [2], 23 nM.

For `Cc1cccc(C)c1SCCCCN1CCN(c2cccc3[nH]ccc23)CC1` [Compound 5ab, 4-{4-[4-(2,6-Dimethyl-phenylsulfanyl)-butyl]-piperazin-1-yl}-1H-indole], in data set [1] (at 50 nM), the inhibition at 0.05 µM amounted to 83%. In addition, the inhibition at 0.1 µM in data set [2] (setting [3]) amounted to 95%.

For `Cc1ccc(SCCN2CCN(c3cccc4[nH]ccc34)CC2)c(C)c1` [Compound 5ac, 4-{4-[2-(2,4-Dimethyl-phenylsulfanyl)-ethyl]-piperazin-1-yl}-1H-indole], in data set [1] (at 50 nM), the inhibition at 0.05 µM was determined as 85%. The inhibition at 0.1 µM in data set [2] (setting [3]) was determined as 83%.

On to `Cc1ccc(SCCCN2CCN(c3cccc4[nH]ccc34)CC2)cc1C` [Compound 5as, 4-{4-[3-(3,4-Dimethyl-phenylsulfanyl)-propyl]-piperazin-1-yl}-1H-indole], for which the inhibition at 0.05 µM in data set [1] (at 50 nM) came to 103%. Further, in data set [2] (setting [3]), the inhibition at 0.1 µM amounted to 99%.

Take `Cc1ccc(Cl)c(OCCCCN2CCN(c3cccc4[nH]ccc34)CC2)c1` [Compound 5ak, 4-{4-[4-(2-Chloro-5-methyl-phenoxy)-butyl]-piperazin-1-yl}-1H-indole]: the inhibition at 0.05 µM in data set [1] (at 50 nM) was 91%. Also, in data set [2] (setting [3]), the inhibition at 0.1 µM worked out at 93%.

For the compound `N#Cc1ccc(OCCCCN2CCN(c3cccc4[nH]ccc34)CC2)c(Cl)c1` [Compound 5ap], the “Inhibition of 3H-5-CT Binding % inhibition at 50 nM” value in data set [1] (at 50 nM) turned out to be 100%. For the same compound, the “Inhibition of 3H-YM-09151 binding % inhibition at 100 nM” value in data set [2] (setting [3]) is recorded as 106%.

As to `C=CCc1cccc(Cl)c1OCCN1CCN(c2cccc3[nH]ccc23)CC1` [Compound 5ae, 4-{4-[2-(2-Allyl-6-chloro-phenoxy)-ethyl]-piperazin-1-yl}1H-indole], in data set [1] (at 50 nM), the inhibition at 0.05 µM was 92%. For the same compound, in data set [2] (setting [3]), the inhibition at 0.1 µM turned out to be 88%.

For the compound `Fc1cc(Br)cc(F)c1OCCCN1CCN(c2cccc3[nH]ccc23)CC1` [Compound 4m, 4-{4-[3-(4-Bromo-2,6-difluoro-phenoxy)-propyl]-piperazin-1-yl}-1H-indole], the IC50 came to 1 nM in data set [1] and 39 nM in data set [2].

As for `Clc1cccc(SCCN2CCN(c3cccc4[nH]ccc34)CC2)c1Cl` [Compound 5ad, 4-{4-[2-(2,3-Dichloro-phenylsulfanyl)-ethyl]-piperazin-1-yl}-1H-indole], in data set [1] (at 50 nM), the inhibition at 0.05 µM turned out to be 76%. For the same compound, the half-maximal inhibitory concentration (IC50) in data set [2] was 4.1 nM.
